Measured values reported in patent publication US7271165B2, “Rifamycin analogs and uses thereof” (priority 2003, dated 2007).
Values after ≈ are worked out from the molar mass of the structure shown.

Assays:
E. faecalis = assay: MIC assay, E. faecalis; assay type: cell-based, Enterococcus faecalis
H. flu = assay type: cell-based, H. influenza; conditions: H. flu
S. aureus = assay: MIC assay, S. aureus; assay type: cell-based, Staphylococcus aureus
E coli = assay: MIC assay, E coli; assay type: cell-based
S. pneumo. = assay: MIC assay, S. pneumo.; assay type: cell-based, Streptococcus pneumoniae

| Compound | MIC (μg/mL) E. faecalis (E. faecalis) [µg/mL] | MIC (μg/mL) H. flu (H. flu) [µg/mL] | MIC (μg/mL) S. aureus (S. aureus) [µg/mL] | MIC (μg/mL) E coli (E coli) [µg/mL] | MIC (μg/mL) S. pneumo. (S. pneumo.) [µg/mL] |
| --- | --- | --- | --- | --- | --- |
| 3′-hydroxy-5′-(4-ethylcarbamyl-1-piperidinyl)benzoxazinorifamycin [Compound 1] | 2 | 2 | 0.008 | >8 | 0.00025 |
| 25-O-deacetyl-5′-[(8aR)octahydropyrrolo[1,2-a]pyrazin-2-yl]benzthiazinorifamycin [Compound 78] | 0.12 | 0.12 | 0.002 | 4 | 0.00012 |
| CCOC(=O)N1CCCC2CN(c3cc(O)c4nc5c6c7c8c(C)c(O)c6c(=O)c(c-5oc4c3)NC(=O)C(C)=CC=CC(C)C(O)C(C)C(O)C(C)C(O)C(C)C(OC)C=COC(C)(O8)C7=O)CC21 (mixture of isomers) [Compound 42, 25-O-deacetyl-3′-hydroxy-5′-[1-ethylcarbamyl-(4aR,7aR)-octahydro-6H-pyrrolo [3,4-b]pyridin-6-yl]benzoxazinorifamycin] | 2 | 0.5 | 0.008 | 8 | 0.00012 |
| CCOC(=O)N1CCCC2CN(c3cc(O)c4nc5c6c7c8c(C)c(O)c6c(=O)c(c-5oc4c3)NC(=O)C(C)=CC=CC(C)C(O)C(C)C(O)C(C)C(OC(C)=O)C(C)C(OC)C=COC(C)(O8)C7=O)CC21 (single isomer, unassigned) [Compound 40] | 1 (≈ 1 µM) | 0.5 (≈ 0.501 µM) | 0.06 (≈ 0.0602 µM) | >8 | 0.008 (≈ 0.00802 µM) |
| COC1C=COC2(C)Oc3c(C)c(O)c4c(=O)c(c5oc6cc(N7CC8C(C7)C8NC(=O)OCC[Si](C)(C)C)cc(O)c6nc-5c4c3C2=O)NC(=O)C(C)=CC=CC(C)C(O)C(C)C(O)C(C)C(OC(C)=O)C1C [Compound 2, 3′-hydroxy-5′-[6-(2-trimethylsilyl)ethylcarbamyl-(1R,5S)-3-azabicyclo[3.1.0]hex-3-yl]benzoxazinorifamycin] | >8 | >8 | 1 (≈ 0.96 µM) | >8 | 0.03 (≈ 0.0288 µM) |
| CCOC(=O)NC1CCN(c2cc(O)c3nc4c5c6c7c(C)c(O)c5c(=O)c(c-4oc3c2)NC(=O)/C(C)=C\C=C\[C@H](C)[C@H](O)[C@@H](C)[C@@H](O)[C@@H](C)[C@H](O)[C@H](C)[C@@H](OC)/C=C/O[C@@](C)(O7)C6=O)CC1 [Compound 3, 25-O-deacetyl-3′-hydroxy-5′-(4-ethylcarbamyl-1-piperidinyl)benzoxazinorifamycin] | 0.12 (≈ 0.129 µM) | 0.25 (≈ 0.269 µM) | 0.03 (≈ 0.0323 µM) | 4 (≈ 4.31 µM) | 0.0005 (≈ 0.000538 µM) |
| COC1C=COC2(C)Oc3c(C)c(O)c4c(=O)c(c5oc6cc(N7CC8C(N)C8C7)cc(O)c6nc-5c4c3C2=O)NC(=O)C(C)=CC=CC(C)C(O)C(C)C(O)C(C)C(OC(C)=O)C1C [Compound 4, 3′-hydroxy-5′-[6-amino-(1R,5S)-3-azabicyclo[3.1.0]hex-3-yl]benzoxazinorifamycin] | 0.5 (≈ 0.557 µM) | 0.25 (≈ 0.279 µM) | 0.03 (≈ 0.0334 µM) | >8 | 0.00025 (≈ 0.000279 µM) |
| COC1C=COC2(C)Oc3c(C)c(O)c4c(=O)c(c5oc6cc(N7CC(C)CC(C)C7)cc(O)c6nc-5c4c3C2=O)NC(=O)C(C)=CC=CC(C)C(O)C(C)C(O)C(C)C(O)C1C (stereo not drawn) [Compound 113] | 1 (≈ 1.15 µM) | 0.12 (≈ 0.138 µM) | 0.008 (≈ 0.0092 µM) | – | 0.002 (≈ 0.0023 µM) |
| CCc1cc(C)cc2nc3c4c5c6c(C)c(O)c4c(=O)c(c-3oc12)NC(=O)C(C)=CC=CC(C)C(O)C(C)C(O)C(C)C(O)C(C)C(OC)C=COC(C)(O6)C5=O (stereo not drawn) [Compound 130] | 1 (≈ 1.27 µM) | – | – | >8 | 0.25 (≈ 0.319 µM) |
